{"source": "patent US9255295B2", "about": "“Method for evaluating the sensitizing potential of a test compound” (IMMUNOSEARCH, priority 2010, dated 2016)", "system": "ARE gene family (AKR1B10, AKR1C1, AKR1C2, CYP1B1, FTH1P, FTL, G6PD, GCLM, NQO2, SLC7A11, TXNRD1, UGT1A1, UGT1A9, YWHAZ, CD36, CYP1A1, GCLC, HMOX1, NQO1, PSME2 …)", "conditions": "for AHR expression / AKR1B10 expression / AKR1C1 expression / AKR1C2 expression / CYP1A1 expression / CYP1B1 expression / FTH1P expression / FTL expression / GCLC expression / GCLM expression / HMOX1 expression / NQO1 expression / NQO2 expression / SLC7A11 expression / TXNRD1 expression / UGT1A1 expression / UGT1A9 expression: compared to the control", "note": "Read-outs that look alike come from different tables or passages of the source."}
{"smiles": "CC=Cc1ccc(O)c(OC)c1", "note": "[Isoeugenol]", "values": [{"measurement": "AHR NUMBER OF GENES grade", "setting": "0.1%", "result": "0 (if this expression is lower, the grade is 0)"}, {"measurement": "AKR1B10 NUMBER OF GENES grade", "setting": "0.1%", "result": "0 (if this expression is lower, the grade is 0)"}, {"measurement": "AKR1C1 NUMBER OF GENES grade", "setting": "0.1%", "result": "0 (if this expression is lower, the grade is 0)"}, {"measurement": "AKR1C2 NUMBER OF GENES grade", "setting": "0.1%", "result": "0 (if this expression is lower, the grade is 0)"}, {"measurement": "ARE >1.3 (number of genes)", "setting": "0.1%", "result": 2}, {"measurement": "CD36 expression compared to control", "setting": "0.1%", "result": 0.9}, {"measurement": "CD36 grade (NUMBER OF GENES)", "setting": "0.1%", "result": "0 (if this expression is lower, the grade is 0)"}, {"measurement": "CYP1A1 NUMBER OF GENES grade", "setting": "0.1%", "result": "1 (If the expression is greater than 1.3 compared to the control, a grade of 11s given)"}, {"measurement": "CYP1B1 NUMBER OF GENES grade", "setting": "0.1%", "result": "1 (If the expression is greater than 1.3 compared to the control, a grade of 11s given)"}, {"measurement": "FTH1P NUMBER OF GENES grade", "setting": "0.1%", "result": "0 (if this expression is lower, the grade is 0)"}, {"measurement": "FTL NUMBER OF GENES grade", "setting": "0.1%", "result": "0 (if this expression is lower, the grade is 0)"}, {"measurement": "GCLC NUMBER OF GENES grade", "setting": "0.1%", "result": "0 (if this expression is lower, the grade is 0)"}, {"measurement": "GCLM NUMBER OF GENES grade", "setting": "0.1%", "result": "0 (if this expression is lower, the grade is 0)"}, {"measurement": "HMOX1 NUMBER OF GENES grade", "setting": "0.1%", "result": "0 (if this expression is lower, the grade is 0)"}, {"measurement": "NQO1 NUMBER OF GENES grade", "setting": "0.1%", "result": "0 (if this expression is lower, the grade is 0)"}, {"measurement": "NQO2 NUMBER OF GENES grade", "setting": "0.1%", "result": "0 (if this expression is lower, the grade is 0)"}, {"measurement": "S100A8 expression compared to control", "setting": "0.1%", "result": 1.1}, {"measurement": "S100A8 grade (NUMBER OF GENES)", "setting": "0.1%", "result": "0 (if this expression is lower, the grade is 0)"}, {"measurement": "SLC7A11 NUMBER OF GENES grade", "setting": "0.1%", "result": "0 (if this expression is lower, the grade is 0)"}, {"measurement": "TOTAL ARE (number of genes)", "setting": "0.1%", "result": 2}, {"measurement": "TXNRD1 NUMBER OF GENES grade", "setting": "0.1%", "result": "0 (if this expression is lower, the grade is 0)"}, {"measurement": "UGT1A1 NUMBER OF GENES grade", "setting": "0.1%", "result": "0 (if this expression is lower, the grade is 0)"}, {"measurement": "UGT1A9 NUMBER OF GENES grade", "setting": "0.1%", "result": "0 (if this expression is lower, the grade is 0)"}, {"measurement": "AHR expression", "setting": "0.1%", "result": 0.7}, {"measurement": "AKR1B10 expression", "setting": "0.1%", "result": 0.9}, {"measurement": "AKR1C1 expression", "setting": "0.1%", "result": 1.1}, {"measurement": "AKR1C2 expression", "setting": "0.1%", "result": 1.0}, {"measurement": "CYP1A1 expression", "setting": "0.1%", "result": 11.9}, {"measurement": "CYP1B1 expression", "setting": "0.1%", "result": 12.2}, {"measurement": "FTH1P expression", "setting": "0.1%", "result": 0.8}, {"measurement": "FTL expression", "setting": "0.1%", "result": 1.0}, {"measurement": "GCLC expression", "setting": "0.1%", "result": 0.8}, {"measurement": "GCLM expression", "setting": "0.1%", "result": 1.1}, {"measurement": "HMOX1 expression", "setting": "0.1%", "result": 0.9}, {"measurement": "NQO1 expression", "setting": "0.1%", "result": 1.1}, {"measurement": "NQO2 expression", "setting": "0.1%", "result": 1.0}, {"measurement": "SLC7A11 expression", "setting": "0.1%", "result": 1.1}, {"measurement": "TXNRD1 expression", "setting": "0.1%", "result": 1.1}, {"measurement": "UGT1A1 expression", "setting": "0.1%", "result": 1.0}, {"measurement": "UGT1A9 expression", "setting": "0.1%", "result": 0.8}, {"measurement": "AHR NUMBER OF GENES grade", "setting": "1%", "result": "0 (if this expression is lower, the grade is 0)"}, {"measurement": "AKR1B10 NUMBER OF GENES grade", "setting": "1%", "result": "0 (if this expression is lower, the grade is 0)"}, {"measurement": "AKR1C1 NUMBER OF GENES grade", "setting": "1%", "result": "0 (if this expression is lower, the grade is 0)"}, {"measurement": "AKR1C2 NUMBER OF GENES grade", "setting": "1%", "result": "0 (if this expression is lower, the grade is 0)"}, {"measurement": "ARE >1.3 (number of genes)", "setting": "1%", "result": 3}, {"measurement": "CD36 expression compared to control", "setting": "1%", "result": 1.3}, {"measurement": "CD36 grade (NUMBER OF GENES)", "setting": "1%", "result": "1 (If the expression is greater than 1.3 compared to the control, a grade of 11s given)"}, {"measurement": "CYP1A1 NUMBER OF GENES grade", "setting": "1%", "result": "1 (If the expression is greater than 1.3 compared to the control, a grade of 11s given)"}, {"measurement": "CYP1B1 NUMBER OF GENES grade", "setting": "1%", "result": "1 (If the expression is greater than 1.3 compared to the control, a grade of 11s given)"}, {"measurement": "FTH1P NUMBER OF GENES grade", "setting": "1%", "result": "0 (if this expression is lower, the grade is 0)"}, {"measurement": "FTL NUMBER OF GENES grade", "setting": "1%", "result": "0 (if this expression is lower, the grade is 0)"}, {"measurement": "GCLC NUMBER OF GENES grade", "setting": "1%", "result": "0 (if this expression is lower, the grade is 0)"}, {"measurement": "GCLM NUMBER OF GENES grade", "setting": "1%", "result": "0 (if this expression is lower, the grade is 0)"}, {"measurement": "HMOX1 NUMBER OF GENES grade", "setting": "1%", "result": "0 (if this expression is lower, the grade is 0)"}, {"measurement": "NQO1 NUMBER OF GENES grade", "setting": "1%", "result": "0 (if this expression is lower, the grade is 0)"}, {"measurement": "NQO2 NUMBER OF GENES grade", "setting": "1%", "result": "0 (if this expression is lower, the grade is 0)"}, {"measurement": "S100A8 expression compared to control", "setting": "1%", "result": 1.0}, {"measurement": "S100A8 grade (NUMBER OF GENES)", "setting": "1%", "result": "0 (if this expression is lower, the grade is 0)"}, {"measurement": "SLC7A11 NUMBER OF GENES grade", "setting": "1%", "result": "0 (if this expression is lower, the grade is 0)"}, {"measurement": "TOTAL ARE (number of genes)", "setting": "1%", "result": 3}, {"measurement": "TXNRD1 NUMBER OF GENES grade", "setting": "1%", "result": "1 (If the expression is greater than 1.3 compared to the control, a grade of 11s given)"}, {"measurement": "UGT1A1 NUMBER OF GENES grade", "setting": "1%", "result": "0 (if this expression is lower, the grade is 0)"}, {"measurement": "UGT1A9 NUMBER OF GENES grade", "setting": "1%", "result": "0 (if this expression is lower, the grade is 0)"}, {"measurement": "AHR expression", "setting": "1%", "result": 0.9}, {"measurement": "AKR1B10 expression", "setting": "1%", "result": 0.7}, {"measurement": "AKR1C1 expression", "setting": "1%", "result": 1.2}, {"measurement": "AKR1C2 expression", "setting": "1%", "result": 0.9}, {"measurement": "CYP1A1 expression", "setting": "1%", "result": 219.2}, {"measurement": "CYP1B1 expression", "setting": "1%", "result": 25.3}, {"measurement": "FTH1P expression", "setting": "1%", "result": 0.9}, {"measurement": "FTL expression", "setting": "1%", "result": 1.0}, {"measurement": "GCLC expression", "setting": "1%", "result": 0.9}, {"measurement": "GCLM expression", "setting": "1%", "result": 1.2}, {"measurement": "HMOX1 expression", "setting": "1%", "result": 1.2}, {"measurement": "NQO1 expression", "setting": "1%", "result": 1.0}, {"measurement": "NQO2 expression", "setting": "1%", "result": 1.0}, {"measurement": "SLC7A11 expression", "setting": "1%", "result": 1.1}, {"measurement": "TXNRD1 expression", "setting": "1%", "result": 1.3}, {"measurement": "UGT1A1 expression", "setting": "1%", "result": 1.1}, {"measurement": "UGT1A9 expression", "setting": "1%", "result": 1.0}, {"measurement": "AHR NUMBER OF GENES grade", "setting": "10%", "result": "0 (if this expression is lower, the grade is 0)"}, {"measurement": "AKR1B10 NUMBER OF GENES grade", "setting": "10%", "result": "0 (if this expression is lower, the grade is 0)"}]}
